This note sets out measurements from patent US20240150377A1, “MODULATORS OF CYSTIC FIBROSIS TRANSMEMBRANE CONDUCTANCE REGULATOR” (VERTEX PHARMACEUTICALS INCORPORATED, priority 2020, published 2024).

For orientation: EC50 means the concentration that produces a half-maximal response.

For the experiment, the target named is T1, CFTR (Homo sapiens, UniProt P13569, DEL508-508).
T1 construct: endogenous in cells; host or cells: primary human bronchial epithelial cells from CF subjects (F508del/MF-HBE), differentiated at air-liquid interface
T1 sequence (P13569 with tags, fused parts or gaps DEL508-508): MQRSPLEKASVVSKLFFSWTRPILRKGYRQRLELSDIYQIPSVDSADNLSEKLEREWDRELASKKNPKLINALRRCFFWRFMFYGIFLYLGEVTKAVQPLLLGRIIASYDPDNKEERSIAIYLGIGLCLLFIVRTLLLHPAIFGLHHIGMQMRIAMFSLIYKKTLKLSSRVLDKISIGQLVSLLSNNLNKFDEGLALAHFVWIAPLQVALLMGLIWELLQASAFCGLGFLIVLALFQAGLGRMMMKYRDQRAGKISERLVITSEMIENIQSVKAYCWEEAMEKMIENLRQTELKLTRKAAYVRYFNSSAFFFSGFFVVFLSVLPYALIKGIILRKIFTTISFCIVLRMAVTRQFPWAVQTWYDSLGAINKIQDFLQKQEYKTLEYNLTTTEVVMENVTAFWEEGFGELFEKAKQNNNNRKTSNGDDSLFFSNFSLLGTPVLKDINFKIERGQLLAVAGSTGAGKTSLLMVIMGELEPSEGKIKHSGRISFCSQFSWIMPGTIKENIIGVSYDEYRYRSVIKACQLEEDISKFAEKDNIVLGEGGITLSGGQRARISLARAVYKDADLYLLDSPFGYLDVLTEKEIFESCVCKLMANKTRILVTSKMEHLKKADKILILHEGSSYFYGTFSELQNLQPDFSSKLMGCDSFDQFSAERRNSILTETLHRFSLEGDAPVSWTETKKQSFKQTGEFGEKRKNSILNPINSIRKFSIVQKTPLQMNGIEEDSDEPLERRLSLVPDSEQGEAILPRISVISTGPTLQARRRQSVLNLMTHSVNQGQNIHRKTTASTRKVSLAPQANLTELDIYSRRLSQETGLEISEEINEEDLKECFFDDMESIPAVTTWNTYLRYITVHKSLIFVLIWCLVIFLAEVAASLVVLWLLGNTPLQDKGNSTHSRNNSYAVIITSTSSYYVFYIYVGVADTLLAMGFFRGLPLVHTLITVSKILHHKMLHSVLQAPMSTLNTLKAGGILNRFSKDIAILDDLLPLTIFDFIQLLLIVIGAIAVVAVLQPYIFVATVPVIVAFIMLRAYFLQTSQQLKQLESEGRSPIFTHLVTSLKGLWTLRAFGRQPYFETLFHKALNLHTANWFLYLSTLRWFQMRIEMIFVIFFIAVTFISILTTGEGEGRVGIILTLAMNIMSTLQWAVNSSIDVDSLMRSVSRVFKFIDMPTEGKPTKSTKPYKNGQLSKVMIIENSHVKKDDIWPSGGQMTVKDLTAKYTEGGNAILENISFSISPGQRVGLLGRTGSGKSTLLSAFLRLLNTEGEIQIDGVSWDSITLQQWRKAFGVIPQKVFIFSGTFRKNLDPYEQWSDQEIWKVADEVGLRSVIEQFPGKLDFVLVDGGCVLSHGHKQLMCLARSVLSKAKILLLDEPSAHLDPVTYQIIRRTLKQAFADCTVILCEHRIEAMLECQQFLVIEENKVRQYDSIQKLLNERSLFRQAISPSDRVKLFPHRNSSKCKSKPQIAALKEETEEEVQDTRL
Kind of experiment: HBE assay: Ussing chamber assay of CFTR-mediated short-circuit currents. The format is cell-based. The method, boiled down: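 CFTR-mediated Isc (μA/cm²) equals the peak response to apical 20 μM forskolin minus the residual after a 20 μM each BPO/GlyH-101/CFTR inhibitor 172 cocktail, recorded in Ussing chambers at Vhold 0 mV, 37 °C, pH 7.4, with 30 μM apical amiloride. Cells were F508del/MF HBE cultures preincubated 18-24 h with corrector (concentration range or 10 μM) plus 1 μM ivacaftor in 20% human serum.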

Setting [1] is: HBE assay, read-out: HBE Max activity (%).
Where [2] appears, read: Table 12, read-out: HBE Max Activity (%).
[3] abbreviates: Table 11, read-out: HBE Max Activity (%).
Where [4] appears, read: Table 10, read-out: HBE Max activity (%).
Setting [5] is: Table 13, at 10 μM, read-out: HBE Activity at 10 μM (%).
Setting [6] is: HBE assay, 10 μM, read-out: HBE Activity at 10 μM (%).
Where [7] appears, read: Table 12, at 10 μM, read-out: HBE Activity at 10 μM (%).

Read-outs that look alike come from different tables or passages of the source.

Regarding `Cc1cccc(C)c1-c1cc2nc(n1)NS(=O)(=O)c1cccc(c1)C(=O)N(Cc1ncc(O[C@@H](C)C(C)C)cn1)[C@H](CC(C)(C)C)CO2` [Compound 1301, (11R)-6-(2,6-Dimethylphenyl)-12-[[5-[(1S)-1,2-dimethylpropoxy]pyrimidin-2-yl]methyl]-11-(2,2-dimethylpropyl)-2,2-dioxo-9-oxa-2λ^6-thia-3,5,12,19-tetrazatricyclo[12.3.1.14,8]nonadeca-1(18),4(19),5,7,14,16-hexaen-13-one], the concentration for a half-maximal effect (EC50) (HBE assay, read-out: HBE EC50) is less than 1 µM. Also, the Emax under setting [1] was greater than 60%.

Consider `Cc1cccc(C)c1-c1cc2nc(n1)NS(=O)(=O)c1cccc(c1)C(=O)N(Cc1ncc(N3CCC[C@@H]3C)cn1)[C@H](CC(C)(C)C)CO2` [Compound 569], for which the half-maximal effective concentration (EC50) (Table 12, read-out: HBE EC50) is less than 1 µM. For the same molecule, the Emax under setting [2] was greater than 60%.

With `COCCN1CCCC(CN2C(=O)c3cccc(c3)S(=O)(=O)Nc3nc(cc(-c4c(C)cccc4C)n3)OC[C@H]2CC(C)(C)C)C1=O` (stereo partly shown) [Compound 641], the 50% effective concentration (EC50) (Table 11, read-out: HBE EC50) fell in the range of 1 to 3 µM. For the same molecule, under setting [3], the Emax was greater than 60%.

As for `Cc1cccc(C)c1-c1cc2nc(n1)NS(=O)(=O)c1cccc(c1)C(=O)N(Cc1ccc(-c3c(C)n[nH]c3C)cc1)[C@H](CC(C)(C)C)CO2` [Compound 143, (11R)-12-{[4-(3,5-dimethyl-1H-pyrazol-4-yl)phenyl]methyl}-6-(2,6-dimethylphenyl)-11-(2,2-dimethylpropyl)-9-oxa-2λ^6-thia-3,5,12,19-tetraazatricyclo[12.3.1.14,8]nonadeca-1(17),4,6,8(19),14(18),15-hexaene-2,2,13-trione], the EC50 (Table 10, read-out: HBE EC50) is less than 1 µM. Moreover, under setting [4], the Emax was greater than 60%.

In the case of `Cc1cccc(C)c1-c1cc2nc(n1)NS(=O)(=O)c1cccc(c1)C(=O)N(Cc1cncc(N(C)C3CCCC3)n1)[C@H](CC(C)(C)C)CO2` [Compound 1387], the half-maximal effective concentration (EC50) (HBE assay, read-out: HBE EC50) was less than 1 µM. For the same molecule, the Emax under setting [1] is greater than 60%.

As for `Cc1cncc(CN2C(=O)c3cccc(c3)S(=O)(=O)Nc3nc(cc(-c4c(C)cccc4C)n3)OC[C@H]2CC(C)(C)C)n1` [Compound 1069], where the note is “Table 11, read-out: HBE EC50”, the EC50 is less than 1 µM. The Emax under setting [3] was greater than 60%.

`Cc1cccc(C)c1-c1cc2nc(n1)NS(=O)(=O)c1cccc(c1)C(=O)N(CC(=O)NCc1ccccc1)[C@H](CC(C)(C)C)CO2` [Compound 219]: the activation at 10 µM under setting [5] was greater than 600%.

For the molecule `Cc1cccc(C)c1-c1cc2nc(n1)NS(=O)(=O)c1cccc(c1)C(=O)N(Cc1ccc(C3COC(C)(C)C3)cn1)[C@H](CC(C)(C)C)CO2` (stereo partly shown) [Compound 1062], the activation at 10 µM under setting [5] is greater than 600%.

Take `Cc1cccc(C)c1-c1cc2nc(n1)NS(=O)(=O)c1cccc(c1)C(=O)N(Cc1cccc(N3CCCC34CCC4)n1)[C@H](CC(C)(C)C)CO2` [Compound 562]: the half-maximal effective concentration (EC50) (Table 12, read-out: HBE EC50) is less than 1 µM. Under setting [2], the Emax was greater than 60%.

Regarding `COCCOc1cnc(CN2C(=O)c3cccc(c3)S(=O)(=O)Nc3nc(cc(-c4c(C)cccc4C)n3)OC[C@H]2CC(C)(C)C)c(F)c1` [Compound 1364], the 50% effective concentration (EC50) (HBE assay, read-out: HBE EC50) is less than 1 µM. The Emax under setting [1] was greater than 60%.

`Cc1cccc(C)c1-c1cc2nc(n1)NS(=O)(=O)c1cccc(c1)C(=O)N(Cc1ncc(N3CC(C)(C)C3)cn1)[C@H](CC1CC1)CO2` [Compound 1505]: the activation at 10 µM under setting [6] is greater than 60%. Further, the 50% effective concentration (EC50) (HBE assay, read-out: HBE EC50) is less than 1 µM. Under setting [1], the Emax was greater than 60%.

For `Cc1cccc(C)c1-c1cc2nc(n1)NS(=O)(=O)c1cccc(c1)C(=O)N(Cc1cnn(C(C)C)c1)[C@H](CC(C)(C)C)CO2` [Compound 823], the activation at 10 µM (Table 10, at 10 μM, read-out: HBE activity at 10 (μM) (%)) is greater than 60%. Besides, the Emax under setting [4] was greater than 60%.

As to `Cc1cccc(C)c1-c1cc2nc(n1)NS(=O)(=O)c1cccc(c1)C(=O)N(CC1CC(N3C[C@@H](C)O[C@@H](C)C3)C1)[C@H](CC(C)(C)C)CO2` (single isomer, unassigned) [Compound 64], the concentration for a half-maximal effect (EC50) (HBE EC50 (μM), Table 10) was less than 1 µM. Besides, the Emax (read-out: HBE Max activity (%)) is greater than 60%.

`Cc1cccc(C)c1-c1cc2nc(n1)NS(=O)(=O)c1cccc(c1)C(=O)N(Cc1ncc(OC(C)C)cn1)[C@H](CC(C)(C)F)CO2` [Compound 1308, (11R)-6-(2,6-Dimethylphenyl)-11-(2-fluoro-2-methyl-propyl)-12-[(5-isopropoxypyrimidin-2-yl)methyl]-2,2-dioxo-9-oxa-2λ^6-thia-3,5,12,19-tetrazatricyclo[12.3.1.14,8]nonadeca-1(18),4(19),5,7,14,16-hexaen-13-one]: under setting [6], the activation at 10 µM is greater than 60%.

With `Cc1cccc(C)c1-c1cc2nc(n1)NS(=O)(=O)c1cccc(c1)C(=O)N(Cc1ccccc1OCC(C)(C)OO)[C@H](CC(C)(C)C)CO2` [Compound 781], the EC50 (Table 10, read-out: HBE EC50) was less than 1 µM. Under setting [4], the Emax was greater than 60%.

Take `Cc1ccc2ccccc2c1-c1cc2nc(n1)NS(=O)(=O)c1cccc(c1)C(=O)N(Cc1ccc(N3CCOCC3)cn1)[C@H](CC(C)(C)C)CO2` [Compound 1075]: the EC50 (Table 10, read-out: HBE EC50) was less than 1 µM. The Emax under setting [4] is greater than 60%.

As to `Cc1cccc(C)c1-c1cc2nc(n1)NS(=O)(=O)c1cccc(c1)C(=O)N(CC(=O)N1CCC(C)(C)CC1)[C@H](CC(C)(C)C)CO2` [Compound 208], the activation at 10 µM under setting [5] was greater than 600%.

For `Cc1cccc(C)c1-c1cc2nc(n1)NS(=O)(=O)c1cccc(c1)C(=O)N(Cc1ccc(N3CC4(CCOC4)C3)cn1)[C@H](CC(C)(C)C)CO2` [Compound 1055], the activation at 10 µM under setting [5] was greater than 600%.

Regarding `COCCOc1cnc(CN2C(=O)c3cccc(c3)S(=O)(=O)Nc3nc(cc(-c4c(C)cccc4C)n3)OC[C@H]2CC(C)(C)C)c(C)c1` [Compound 1382], where the note is “HBE assay, read-out: HBE EC50”, the EC50 was less than 1 µM. Also, the Emax under setting [1] is greater than 60%.

`Cc1cccc(C)c1-c1cc2nc(n1)NS(=O)(=O)c1cccc(c1)C(=O)N(Cc1ncc(OC3CCC3)cc1F)[C@H](CC1CC1)CO2` [Compound 1468]: the EC50 (HBE assay, read-out: HBE EC50) was less than 1 µM. For the same molecule, the Emax under setting [1] is greater than 60%.

Regarding `Cc1ccnc(CNC(=O)CN2C(=O)c3cccc(c3)S(=O)(=O)Nc3nc(cc(-c4c(C)cccc4C)n3)OC[C@H]2CC(C)(C)C)c1` [Compound 218], the activation at 10 µM under setting [7] is greater than 600%.

For `COc1cnc(CN2C(=O)c3cccc(c3)S(=O)(=O)Nc3nc(cc(-c4c(C)cccc4C)n3)OC[C@H]2CC(C)(C)C)c(Cl)c1` [Compound 1067], the EC50 (Table 13, read-out: HBE EC50) was less than 1 µM. The Emax (Table 13, read-out: HBE Max Activity (%)) was greater than 60%.

On to `Cc1cccc(C)c1-c1cc2nc(n1)NS(=O)(=O)c1cccc(c1)C(=O)N(Cc1nc(N(C)C(C)C)ccc1C(F)(F)F)[C@H](CC(C)(C)C)CO2` [Compound 458], for which the activation at 10 µM under setting [7] was greater than 600%.

For the molecule `Cc1cccc(C)c1-c1cc2nc(n1)NS(=O)(=O)c1cccc(c1)C(=O)N(Cc1cccc(N3CCOCC(C)(C)C3)n1)[C@H](CC(C)(C)C)CO2` [Compound 1414], where the note is “HBE assay, read-out: HBE EC50”, the half-maximal effective concentration (EC50) was less than 1 µM. Moreover, under setting [1], the Emax was greater than 60%.

In the case of `COc1ccnc(CN2C(=O)c3cccc(c3)S(=O)(=O)Nc3nc(cc(-c4c(C)cccc4C)n3)OC[C@H]2CC(C)(C)C)n1` [Compound 773], the EC50 (Table 10, read-out: HBE EC50) was less than 1 µM. Also, the Emax under setting [4] was greater than 60%.

Take `Cc1cccc(C)c1-c1cc2nc(n1)NS(=O)(=O)c1cccc(c1)C(=O)N(Cc1ccc(C3CCOCC3)cn1)[C@H](CC(C)(C)C)CO2` [Compound 52, (11R)-6-(2,6-Dimethylphenyl)-11-(2,2-dimethylpropyl)-2,2-dioxo-12-[(5-tetrahydropyran-4-yl-2-pyridyl)methyl]-9-oxa-2λ^6-thia-3,5,12,19-tetrazatricyclo[12.3.1.14,8]nonadeca-1(18),4(19),5,7,14,16-hexaen-13-one]: the EC50 (Table 11, read-out: HBE EC50) is less than 1 µM. In addition, the Emax under setting [3] is greater than 60%.

For the molecule `Cc1cccc(C)c1-c1cc2nc(n1)NS(=O)(=O)c1cccc(c1)C(=O)N(Cc1cccc(N3CCCCC3)n1)[C@H](CC(C)(C)C)CO2` [Compound 489], where the note is “Table 10, read-out: HBE EC50”, the EC50 is less than 1 µM. For the same molecule, the Emax under setting [4] was greater than 60%.

For `Cc1cccc(C)c1-c1cc2nc(n1)NS(=O)(=O)c1cccc(c1)C(=O)N(CC(=O)NC1CCCC(C)(C)C1)[C@H](CC(C)(C)C)CO2` (stereo partly shown) [Compound 175], under setting [5], the activation at 10 µM was greater than 600%.

Take `Cc1cccc(C)c1-c1cc2nc(n1)NS(=O)(=O)c1cccc(c1)C(=O)N(Cc1ccccc1-c1c[nH]nc1C1CC1)[C@H](CC(C)(C)C)CO2` [Compound 303]: for the setting “Table 10, read-out: HBE EC50”, the concentration for a half-maximal effect (EC50) was less than 1 µM. Also, under setting [4], the Emax is greater than 60%.

`CCN(c1ccnc(CN2C(=O)c3cccc(c3)S(=O)(=O)Nc3nc(cc(-c4c(C)cccc4C)n3)OC[C@H]2CC(C)(C)C)n1)C(C)C` [Compound 602]: the EC50 (Table 11, read-out: HBE EC50) is less than 1 µM. Moreover, the Emax under setting [3] is greater than 60%.

For the molecule `Cc1cccc(C)c1-c1cc2nc(n1)NS(=O)(=O)c1cccc(c1)C(=O)N(Cc1nc(C(C)C)cn1C)[C@H](CC(C)(C)C)CO2` [Compound 267], the 50% effective concentration (EC50) (Table 12, read-out: HBE EC50) is less than 1 µM. The Emax under setting [2] is greater than 60%.

On to `COc1cnc(CN2C(=O)c3cccc(c3)S(=O)(=O)Nc3nc(cc(-c4c(C)cccc4C)n3)OC[C@H]2CC(C)(C)C)nc1` [Compound 772], for which, for the setting “Table 10, read-out: HBE EC50”, the EC50 is less than 1 µM. Under setting [4], the Emax is greater than 60%.

As for `Cc1cccc(C)c1-c1cc2nc(n1)NS(=O)(=O)c1cccc(c1)C(=O)N(Cc1ncc(N3CC(C)(C)CC3=O)cn1)[C@H](CC(C)(C)C)CO2` [Compound 1365], for the setting “HBE assay, read-out: HBE EC50”, the EC50 is less than 1 µM. Further, the Emax under setting [1] is greater than 60%.

For `Cc1cccc(C)c1-c1cc2nc(n1)NS(=O)(=O)c1cccc(c1)C(=O)N(Cc1ncc(OCC(C)C)cn1)[C@H](CC(C)(C)C)CO2` [Compound 1396], where the note is “HBE assay, read-out: HBE EC50”, the EC50 was less than 1 µM. Besides, the Emax under setting [1] is greater than 60%.
